Where two headings read alike, the source gives them in different places.
Key:
[1] = system: DU 145 cells; assay: MTT cell viability assay on DU 145 prostate cancer cells; assay type: cell-based, human; conditions: for Mean values (%) of primary growth inhibitory screen (viability in %), DU 145: 72 hours
Description: (§1) HeLa, MCF-7 and MDA-MB-231 cells were obtained from Sigma-Aldrich and maintained as reported previously. MRC-5, PC-3, DU 145 cells were purchased from American Type Culture Collection (ATCC, Manassas, VA, USA). PC-3 and DU 145 were maintained in RPMI medium (Sigma-Aldrich) whereas MRC-5 cells were maintained in DMEM medium (Sigma-Aldrich). All media were complemented with 10% Fetal bovine serum (FBS, Sigma-Aldrich) 2 mM L-glutamine, 0.01% streptomycin and 0.005% ampicillin (Sigma-Aldrich). Cells were cultured under standard conditions in a 37 °C incubator containing 5% CO2 in 95% humidity.
(§2) Each test compound was dissolved in cell culture grade DMSO (Molar Chemicals, Halásztelek, Hungary) in a final concentration of […]. Antiproliferative action of the synthesized steroids was investigated by MTT assay. An amount of 5000 cells/well were seeded into 96 well plates. Twenty-four hours post seeding, all cell lines were treated with each compound in 10 and 30 μM concentrations for 72 hours. […] After 72 hours, cells were washed with PBS and incubated with culture medium containing 0.5 mg/mL MTT (3-(4, 5-dimethylthiazolyl-2)-2,5-diphenyltetrazolium bromide) reagent (SERVA, GmbH, Heidelberg, Germany) for an hour at 37 °C. Formazan crystals were solubilized in DMSO and extinction was measured at 570 nm using a Synergy HTX plate reader (BioTech-Hungary, Budapest, Hungary). MTT assays were performed at least three times using four independent biological replicates. Data were normalized to solvent controls and the graphical representation of the obtained data as well as the calculation of IC50 values were carried out by GraphPad Prism 7 software (GraphPad Software; San Diego, CA, USA).

[2] = system: MDA-MB-231 cells; assay: MTT cell viability assay on MDA-MB-231 breast cancer cells; assay type: cell-based, human; conditions: for Mean values (%) of primary growth inhibitory screen (viability in %), MDA-MB-231: 72 hours
Description: as §1, §2

[3] = system: MRC-5 cells; assay: MTT cell viability assay on non-cancerous MRC-5 fibroblasts; assay type: cell-based; conditions: 72 hours, MTT
Description: as §1, §2

[4] = system: HeLa cells; assay: MTT cell viability assay on HeLa cervical cancer cells; assay type: cell-based, human; conditions: 72 hours
Description: as §1, §2

[5] = system: MCF-7 cells; assay: MTT cell viability assay on MCF-7 breast cancer cells; assay type: cell-based, human; conditions: for Mean values (%) of primary growth inhibitory screen (viability in %), MCF-7: 72 hours
Description: as §1, §2

[6] = system: PC-3 cells; assay: MTT cell viability assay on PC-3 prostate cancer cells; assay type: cell-based, human
Description: as §1, §2

[7] = system: Bax mRNA in PC-3 cells; assay: RT-qPCR of Bax mRNA; assay type: cell-based, human; conditions: PC-3, 48 h; 4e, 4j 5 µM; cisplatin 200 µM; GAPDH reference
Description: (§3) PC-3 cells were seeded at 2 × 10^6 cells/well density in 6 well plates. On the following day cells were treated with 5 µM of either compound 4e or 4j or with 200 µM of cisplatin. Cells were collected 48-hours post-treatment and total cellular RNA was isolated using RNeasy® Mini Kit (QIAGEN, Hilden, Germany) according to the manufacturer’s recommendation. RNA (2 µg) was reverse transcribed (TaqMan® Reverse Transcription kit, Applied Biosystems, Foster City, CA, USA) in 50 µL total volume. PCR reactions were performed on PicoReal™ Real-time PCR (Thermo Scientific, Walthan, MA, USA) using SYBRGreen qPCR Master Mix (Thermo Scientific) with an input of 1 µL cDNA. Each primer (Table 3) was used at 200 nM concentration. Relative transcript levels were determined by the ΔΔCt analysis using GAPDH as reference gene. Experiments were repeated three times with three biological replicates.

[8] = system: PC-3 cells; assay: Annexin V/PI apoptosis detection assay (flow cytometry); assay type: cell-based, human; conditions: PC-3, 200 µM cisplatin, 48 h
Description: PC-3 cells were seeded at 2 × 10^6 cells/well density in 6-well plates. On the following day cells were treated with 5 µM of either compound 4e or 4j or with 200 µM of cisplatin (Accord Healthcare Ltd., Middlesex, UK). After 48-hour treatment, cells were collected and a Dead Cell Apoptosis Kit containing AnnexinV-FITC and propidium iodide (Life Technologies-Hungary, Budapest, Hungary) was used according to the manufacturer’s recommendation. Fluorescence intensities of at least 10,000 cells/sample were measured by FACSCalibur™ (BD Biosciences, Franklin Lakes, CA, USA) and data were analyzed by FlowJo V10 software (BD Biosciences, Franklin Lakes, NJ, USA). Experiments were repeated three times using triplicates.

[9] = system: DU 145 cells; set-up: method as in PMID 28595942; conditions: assessed previously; cited from earlier work
[10] = system: PC-3 cells; set-up: method as in PMID 28595942; conditions: assessed previously; cited from earlier work
[11] = system: MRC-5 cells; set-up: method as in PMID 28595942; conditions: assessed previously; cited from earlier work
[12] = system: caspase 3 mRNA in PC-3 cells; assay: RT-qPCR of caspase 3 mRNA; assay type: cell-based, human; conditions: PC-3, 48 h; 4e, 4j 5 µM; cisplatin 200 µM; GAPDH reference
Description: as §3

Compound	Mean values (%) of primary growth inhibitory screen (viability in %), DU 145 ([1]; 10 µM)	Mean values (%) of primary growth inhibitory screen (viability in %), DU 145 ([1]; 30 µM)	Mean values (%) of primary growth inhibitory screen (viability in %), MDA-MB-231 ([2]; 10 µM)	Mean values (%) of primary growth inhibitory screen (viability in %), MDA-MB-231 ([2]; 30 µM)	Mean values (%) of primary growth inhibitory screen (viability in %), MRC-5 ([3]; 10 µM)	Mean values (%) of primary growth inhibitory screen (viability in %), MRC-5 ([3]; 30 µM)	melting point	Mean values (%) of primary growth inhibitory screen (viability in %), HeLa ([4]; 10 µM)	Mean values (%) of primary growth inhibitory screen (viability in %), HeLa ([4]; 30 µM)	Mean values (%) of primary growth inhibitory screen (viability in %), MCF-7 ([5]; 10 µM)	Mean values (%) of primary growth inhibitory screen (viability in %), MCF-7 ([5]; 30 µM)	Mean values (%) of primary growth inhibitory screen (viability in %), PC-3 ([6]; 10 µM, 72 hours, MTT)	Mean values (%) of primary growth inhibitory screen (viability in %), PC-3 ([6]; 30 µM, 72 hours, MTT)	also measured
Cc1c2c(nn1-c1ccccc1)C[C@@H]1CC[C@@H]3[C@H](CC[C@]4(C)C(=O)CC[C@@H]34)[C@@]1(C)C2 [5a, 1′-Phenyl-5′-methylpyrazolo[3′,4′:3,2]-5α-androst-17-one]	80.1%	4.0%	85.0%	15.2%	78.0%	3.9%	247 to 250 °C	70.5%	26.2%	73.3%	7.5%	47.7%	7.6%	
N.N.[Cl][Pt][Cl] [cisplatin, reference compound]														Bax mRNA expression level compared to untreated control [7]: significantly increased; apoptosis induction (annexin V/PI), in words [8]: prominent apoptosis; IC50 [9]: 126.8 ± 1.18 µM; IC50 [10]: 230.9 ± 1.37 µM; IC50 [11]: 237.3 ± 1.16 µM; caspase 3 mRNA expression level compared to untreated control [12]: significantly increased
Cc1c2c(nn1-c1ccccc1)CC1CCC3C4CCC(O)C4(C)CCC3C1(C)C2 (stereo not drawn) [4a, 17β-Hydroxy-1′-phenyl-5′-methylpyrazolo[3′,4′:3,2]-5α-androstane]	67.3%	1.5%	75.0%	32.1%	68.3%	1.2%	241 to 245 °C	49.6%	46.7%	57.1%	5.5%	36.8%	3.2%	IC50 ([1]; Homo sapiens, DU-145, 72 hours, ± SD): 9.2 ± 1.2 µM; IC50 ([2]; Homo sapiens, MDA-MB-231, 72 hours, ± SD): 15.3 ± 3.4 µM; IC50 ([3]; Homo sapiens, MRC5, ± SD): 23.7 ± 2.3 µM; IC50 ([4]; Homo sapiens, HeLa, ± SD): 16.9 ± 3.7 µM; IC50 ([5]; Homo sapiens, MCF7, 72 hours, ± SD): 12.9 ± 0.1 µM; antiproliferative potency against PC-3 prostate cancer cells compared to MRC-5 non-cancerous fibroblasts ([6]; 10 µM, primary screen): significantly higher; IC50 ([6]; Homo sapiens, PC-3, MTT, 72 hours, ± SD): 5.6 ± 1.2 µM

— paper PMC6539495, “Anti-Cancer Activity of Novel Dihydrotestosterone-Derived Ring A-Condensed Pyrazoles on Androgen Non-Responsive Prostate Cancer Cell Lines” (International Journal of Molecular Sciences, 2019)
